From patent US8153676B2, “Use of compounds of formula A-R-Xo pharmaceutically acceptable salts thereof for producing a pharmaceutically preparations” (priority 2006, dated 2012)

Key:
Panc-1 (pancreas cells) [1] = test: LDH cytotoxicity test; type: cell-based; conditions: Panc-1, LDH cytotoxicity test
Description: (§1) The half maximum cytotoxicity of 12-imidazolyl-1-dodecanol was determined with the LDH cytotoxicity test.

[2] = system: MRC-5 (lung fibroblast cells); test: LDH cytotoxicity test; type: cell-based; conditions: MRC-5, LDH cytotoxicity test
Description: as §1

Panc-1 (pancreas cells) [3] = test: Antineoplastic effect: cancer cell proliferation, cell count after four day incubation; type: cell-based; conditions: Panc-1, four day incubation, read-out: half maximum inhibitory concentration IC50 (cancer cell proliferation)
Description: (§2) To this end, four cancer cell lines were seeded into “24 well plates” and allowed to grow for 24 hours. Then a wide array of the concentrations of the test substance 12-imidazolyl-1-dodecanol, dissolved in DMSO, was added to the cell suspensions. The DMSO concentration in the cell medium was 0.01%. […] In all cases a strong inhibition of cancer cell proliferation was determined.
(§3) The following half maximum inhibitory concentrations—IC50 values—of 12-imidazolyl-1-dodecanol were determined: […]

PC-3 (prostate cells) = test: as above; type: cell-based; conditions: PC-3, four day incubation, read-out: half maximum inhibitory concentration IC50 (cancer cell proliferation)
Description: as §2, §3

[4] = system: SW620 (large intestine cells); test: as above; type: cell-based; conditions: read-out: half maximum inhibitory concentration IC50 (cancer cell proliferation)
Description: as §2, §3

HepG2 (liver cells) = test: as above; type: cell-based; conditions: read-out: half maximum inhibitory concentration IC50 (cancer cell proliferation)
Description: as §2, §3

HepG2 liver cancer cells = test: Migration test of HepG2 cells in collagen matrix; type: cell-based; conditions: for drop of migratory activity of the cells: control migratory activity 15%, 900 minutes; for Mean migratory activity: control 15%
Description: Migration test conditions: HepG2 liver cancer cells were embedded in a collagen matrix. Thirty individual cells were inspected continuously by photographic means for 900 minutes. The average percentage of migrating cells was determined. Result 2: […]

male CD rats = test: Acute toxicity in male CD rats; type: in vivo
Description: (§4) The acute toxicity of 12-imidazolyl-1-dodecanol (substance 1) and 12-(1)-imidazolyl-dodecane (substance 2) was tested in male CD rats. For 12-imidazolyl-1-dodecanol the result was an LD50 (14 days) of 1,000 mg/kg, b.w., p.o.; and for 12-(1)-imidazolyl-dodecane an LD50 (14 days) of 1,000 mg/kg b.w., p.o.

cytochrome P450 [5] = test: In vitro inhibition of cytochrome P450 activity; type: biochemical; conditions: for in vitro inhibition of cytochrome P450 activity: compared with 10-undecinyl acid
cytochrome P450 [6] = test: In vivo activity (cytochrome P450 inhibition)
[7] = Acute toxicity in male CD rats; type: in vivo; conditions: male, CD, rat, in vivo, po
Description: as §4

[8] = male, CD, rat, in vivo, po, 14 days

12-imidazolyl-1-dodecanol
half maximum cytotoxicity (Panc-1 (pancreas cells) [1]): 500 µM
half maximum cytotoxicity (as restated in text) (Panc-1 (pancreas cells) [1]): 500 μm
half maximum cytotoxicity [2]: 500 µM
IC50 (Panc-1 (pancreas cells) [3]): 50 nM
IC50 (PC-3 (prostate cells)): 50 nM
IC50 [4]: 100 nM
IC50 (HepG2 (liver cells)): 50 nM
drop of migratory activity of the cells (HepG2 liver cancer cells; 1 μM in matrix medium): 50%
drop of migratory activity of the cells (HepG2 liver cancer cells; 10 μM in matrix medium): 75%
Mean migratory activity (HepG2 liver cancer cells; insulin and 12-imidazolyl-1-dodecanol (10 μl)): 15%
effect on insulin-induced increase in migratory activity (HepG2 liver cancer cells; with insulin, after 450 min. observation time): blocks this increase completely
mean migratory activity below that of the control group (HepG2 liver cancer cells; with insulin, after 900 minutes): 13%
First intolerance reaction (male CD rats; male CD rats, p.o.): substance 1: 1,000 mg/kg b.w., p.o.
No effect at the dose rate (male CD rats; male CD rats, p.o.): substance 1: 500 mg/kg b.w., p.o.
LD50 (14 days) (male CD rats; male CD rats, p.o., 14 days): 1,000 mg/kg, b.w.

C#CCCCCCCCCCOS(=O)(=O)O [10-undecinyl-sulfate]
in vitro inhibition of cytochrome P450 activity (cytochrome P450 [5]): comparably high inhibition
in vivo activity compared with 10-undecinyl acid (cytochrome P450 [6]): far superior

C#CCCCCCCCCCCCCCCCC(=O)O [17-octadecinyl-1-acid]
effectiveness in vitro (cytochrome P450 [5]): especially effective in vitro

C#CCCCCCCCCC(C)(C)C(=O)O [2,2-dimethyl-11-dodecinyl acid]
in vitro inhibition of cytochrome P450 activity (cytochrome P450 [5]): comparably high inhibition
in vivo activity compared with 10-undecinyl acid (cytochrome P450 [6]): far superior

insulin: insulin added to HepG2 cells to stimulate migratory activity [reference compound]
Mean migratory activity (HepG2 liver cancer cells; insulin (100 ng/ml) alone): 38%
increase in the migratory activity (times) (HepG2 liver cancer cells; insulin versus control): 2.5 times

CCCCCCCCCCCCn1ccnc1 [12-(1)-imidazolyl-dodecane]
First intolerance reaction (male CD rats; [8]): substance 2: 500 mg/kg b.w., p.o.
No effect at the dose rate (male CD rats; [8]): substance 2: 250 mg/kg b.w., p.o.
LD50 at 14 days [7]: 1000 mg/kg
